From US20170173002A1, “Compositions and Methods for Treating an Infection” (CMPD LICENSING, LLC, priority 2015, published 2017)

Experiments:
Salmonella typhi = assay: Expected efficacy of antibiotic agents; conditions: expected efficacy against Salmonella typhi
Rickettsiae = conditions: expected efficacy against Rickettsiae
Legionella pneumophila = conditions: expected efficacy against Legionella pneumophila
Pseudomonas fluorescens = assay: Expected efficacy of antibiotic agents; conditions: expected efficacy against Pseudomonas fluorescens
Enterococcus faecium = assay: Expected efficacy of antibiotic agents; conditions: expected efficacy against Enterococcus faecium
Campylobacter jejuni = assay: Expected efficacy of antibiotic agents; conditions: expected efficacy against Campylobacter jejuni
Enterobacter aerogenes = assay: Expected efficacy of antibiotic agents; conditions: expected efficacy against Enterobacter aerogenes
[1] = system: Staphylococcus epidermidis; assay: Expected efficacy of antibiotic agents; conditions: expected efficacy against Staphylococcus epidermidis
Proteus vulgaris = assay: Expected efficacy of antibiotic agents; conditions: expected efficacy against Proteus vulgaris
Haemophilus influenzae = assay: Expected efficacy of antibiotic agents; conditions: expected efficacy against Haemophilus influenzae
Escherichia coli = assay: Expected efficacy of antibiotic agents; conditions: expected efficacy against Escherichia coli
Yersinia pestis = conditions: expected efficacy against Yersinia pestis
Shigella flexneri = assay: Expected efficacy of antibiotic agents; conditions: expected efficacy against Shigella flexneri
[2] = system: Haemophilus parainfluenzae; assay: Expected efficacy of antibiotic agents; conditions: expected efficacy against Haemophilus parainfluenzae
Citrobacter freundii = assay: Expected efficacy of antibiotic agents; conditions: expected efficacy against Citrobacter freundii
Neisseria gonorrhoeae = assay: Expected efficacy of antibiotic agents; conditions: expected efficacy against Neisseria gonorrhoeae
Pseudomonas aeruginosa = assay: Expected efficacy of antibiotic agents; conditions: expected efficacy against Pseudomonas aeruginosa
Shigella dysenteriae = assay: Expected efficacy of antibiotic agents; conditions: expected efficacy against Shigella dysenteriae
Bacteroides fragilis = assay: Expected efficacy of antibiotic agents; conditions: expected efficacy against Bacteroides fragilis
Francisella tularensis = conditions: expected efficacy against Francisella tularensis
Klebsiella oxytoca = assay: Expected efficacy of antibiotic agents; conditions: expected efficacy against Klebsiella oxytoca
Serratia marcescens = assay: Expected efficacy of antibiotic agents; conditions: expected efficacy against Serratia marcescens
Vibrio cholerae = assay: Expected efficacy of antibiotic agents; conditions: expected efficacy against Vibrio cholerae
Citrobacter diversus = assay: Expected efficacy of antibiotic agents; conditions: expected efficacy against Citrobacter diversus
Bartonella bacilliformis = assay: Expected efficacy of antibiotic agents; conditions: expected efficacy against Bartonella bacilliformis
Proteus mirabilis = assay: Expected efficacy of antibiotic agents; conditions: expected efficacy against Proteus mirabilis
Moraxella catarrhalis = assay: Expected efficacy of antibiotic agents; conditions: expected efficacy against Moraxella catarrhalis
Klebsiella pneumoniae = assay: Expected efficacy of antibiotic agents; conditions: expected efficacy against Klebsiella pneumoniae
Chlamydia pneumoniae = assay: Expected efficacy of antibiotic agents; conditions: expected efficacy against Chlamydia pneumoniae
Providencia stuartii = assay: Expected efficacy of antibiotic agents; conditions: expected efficacy against Providencia stuartii
Providencia rettgeri = assay: Expected efficacy of antibiotic agents; conditions: expected efficacy against Providencia rettgeri
Morganella morganii = assay: Expected efficacy of antibiotic agents; conditions: expected efficacy against Morganella morganii
[3] = system: Methicillin resistant staph aureus (MRSA); assay: Expected efficacy of antibiotic agents; conditions: expected efficacy against Methicillin resistant staph aureus (MRSA)
Shigella sonnei = assay: Expected efficacy of antibiotic agents; conditions: expected efficacy against Shigella sonnei
Shigella boydii = assay: Expected efficacy of antibiotic agents; conditions: expected efficacy against Shigella boydii
Corynebacterium jeikeium = assay: Expected efficacy of antibiotic agents; conditions: expected efficacy against Corynebacterium jeikeium
Neisseria meningitidis = assay: Expected efficacy of antibiotic agents; conditions: expected efficacy against Neisseria meningitidis
Candida species = assay: Expected efficacy of antifungal agents; conditions: expected efficacy against Candida species

## O=C(O)c1cn(C2CC2)c2cc(N3CCNCC3)c(F)cc2c1=O [Ciprofloxacin, ciprofloxacin]
Salmonella typhi
  Efficacy: yes
Rickettsiae
  Efficacy: yes
Legionella pneumophila
  Efficacy: yes
Pseudomonas fluorescens
  Efficacy: yes
Enterococcus faecium
  Efficacy: no
Campylobacter jejuni
  Efficacy: yes
Enterobacter aerogenes
  Efficacy: yes
[1]
  Efficacy: yes
Proteus vulgaris
  Efficacy: yes
Haemophilus influenzae
  Efficacy: yes
Escherichia coli
  Efficacy: yes
Yersinia pestis
  Efficacy: yes
Shigella flexneri
  Efficacy: yes
[2]
  Efficacy: yes
Citrobacter freundii
  Efficacy: yes
Neisseria gonorrhoeae
  Efficacy: yes
Pseudomonas aeruginosa
  Efficacy: yes
Shigella dysenteriae
  Efficacy: yes
Bacteroides fragilis
  Efficacy: no
Francisella tularensis
  Efficacy: yes
Klebsiella oxytoca
  Efficacy: yes
Serratia marcescens
  Efficacy: yes
Vibrio cholerae
  Efficacy: yes
Citrobacter diversus
  Efficacy: yes
Bartonella bacilliformis
  Efficacy: yes
Proteus mirabilis
  Efficacy: yes
Moraxella catarrhalis
  Efficacy: yes
Klebsiella pneumoniae
  Efficacy: yes
Chlamydia pneumoniae
  Efficacy: yes
Providencia stuartii
  Efficacy: yes
Providencia rettgeri
  Efficacy: yes
Morganella morganii
  Efficacy: yes
[3]
  Efficacy: no
Shigella sonnei
  Efficacy: yes
Shigella boydii
  Efficacy: yes
Corynebacterium jeikeium
  Efficacy: no
Neisseria meningitidis
  Efficacy: yes

## C[C@@H]1[C@H](O)[C@@H](C)/C=C/C=C/CC/C=C/C=C/C=C/C=C/C(O[C@H]2O[C@H](C)[C@@H](O)[C@H](N)[C@@H]2O)CC2O[C@](O)(CC(O)C(O)CCC(O)CC(O)CC(O)CC(=O)O[C@H]1C)CC(O)C2C(=O)O (some centres unmarked) [Nystatin, nystatin]
Candida species
  Efficacy: yes
